Values of other authors as cited in publication PMC7578299, “The antiviral effects of baloxavir marboxil against influenza A virus infection in ferrets” (Influenza and Other Respiratory Viruses, 2020).

Tested on: cap-dependent endonuclease (CEN)
Set-up: method as in PMID 30316915
Conditions: in vitro studies; cited from earlier work

Compound: COC(=O)OCOc1c2n(ccc1=O)N([C@@H]1c3ccccc3SCc3c1ccc(F)c3F)[C@@H]1COCCN1C2=O [BXM, Baloxavir marboxil]
- CEN inhibitory activity, fold lower than that of BXA: ≥ 200 fold
